Test results taken from paper PMC8003485, “Synthesis and Evaluation of Novel α-Aminoamides Containing Benzoheterocyclic Moiety for the Treatment of Pain” (Molecules, 2021).
Where two headings read alike, the source gives them in different places.

Key:
[1] = test system: ICR (CD−1) male mice; assay: Formalin test (mouse, phase II paw licking); format: in vivo; conditions: 10 mg/kg; for inhibition in vivo at 10 mg/kg: Mus musculus, ip, read-out: % Analgesia (formalin test); for Percentage of analgesia relative to ralfinamide (times higher): formalin test
Protocol: The formalin test was carried out using the method described previously. During the formalin test, Institute of Cancer Research (ICR; CD−1) male mice (weight: 22–25 g) were acclimated to the environment for two days before the experiment with food and water available freely. The mice were housed under a 12 h/12 h light/dark cycle. The temperature and humidity of the room were kept at 25 ± 2 °C and 50–60%, respectively. The mice were divided into a vehicle group, a ralfinamide group, and test compound groups randomly, with eight mice in each group. All compounds were dissolved in saline and administered by intraperitoneal injection (n = 8) or intragastric administration by mouth (n = 8) at 10 mg/kg. The vehicle group was given the same volume of saline.
After administration, the mice were placed into polyvinyl chloride (PVC) observation chambers. Thirty minutes later, the mice were injected subcutaneously with 20 μL of 2.7% formalin solution into the surface of their right hind paw and were returned to their PVC chambers immediately to observe their behavior. The cumulative time each mouse licked its right hind paw during phase II (15–30 min) was recorded as its painful time in phase II. The analgesic effects of the compounds were presented as the mean ± standard deviation. The data were analyzed by SPSS using one-way analysis of variance followed by Dunnett’s test. The analgesic activity of the test compounds was calculated according to the following formula. %Analgesia=Average Time (Vehicle)−Average Time (Drug)/Average Time (Vehicle)× 100%

[2] = target: T1, hNav1.7 (Homo sapiens, UniProt Q15858); assay: Whole-cell patch clamp assay for hNav1.7 inhibition (HEK293 cells stably expressing hNav1.7); format: cell-based; conditions: for inhibition at 10 µM: HEK293, TTX-sensitive Nav1.7 current, mean ± SD; for IC50: Table 4, TTX-sensitive inactivated Nav1.7 current
T1 construct: expressed in transfected cells; host or cells: HEK293
Protocol: The compounds were tested as hNav1.7 peak current inhibitors at room temperature using human embryonic kidney 293 cells stably expressing hNav1.7. The holding voltage was depolarized to 0 mV from −120 mV for 20 ms and restored to −75 mV for 8 s. After that, the membrane potential was recovered to −120 mV for 20 ms and then depolarized to 0 mV for another 20 ms. Finally, the voltage was renewed to −120 mV for 30 ms. The potential was applied every 20 s. The compounds were administered when the voltage of hNav1.7 recorded by the whole-cell patch clamp was stable. Every compound concentration was tested for 5 min, and all compounds were tested at several concentrations and with multiple cells.

[3] = test system: ICR (CD-1) male mice; assay: Acetic acid-induced writhing test; format: in vivo; conditions: 10 mg/kg, i.p.; writhes in 20 min; mean ± SD, n = 6
Protocol: The writhing test was performed according to a previously reported method. The ICR (CD-1) male mice (weight: 22–25 g) were treated as for the formalin test in the same environment. The mice were divided into a vehicle group, a ralfinamide group, and test compound groups randomly, with six mice in each group. All compounds were dissolved in saline and administered by intraperitoneal injection at 10 mg/kg. The vehicle group was given the same volume of saline. After administration, the mice were placed into PVC chambers. Thirty minutes later, the mice were injected with 1% acetic acid solution at 10 mL/kg by intraperitoneal injection and placed into the observation chambers immediately to record the number of writhes each mouse had in 20 min. The results were presented as the mean ± standard deviation. The analytical method was the same as that for the formalin test, and the analgesic activity of each compound was calculated by the following formula. %Analgesia=Average Number (Vehicle)−Average Number (Drug)/Average Number (Vehicle)× 100%

[4] = target: T2, hNav1.8 (Homo sapiens, UniProt Q9Y5Y9); assay: Whole-cell patch clamp assay for hNav1.8 inhibition (CHO cells stably expressing hNav1.8); format: cell-based; conditions: Nav1.8 inactivated state Na+ currents
T2 construct: expressed in transfected cells; host or cells: CHO
Protocol: The whole-cell patch clamp assay assessing the hNav1.8 current was carried out at room temperature with Chinese hamster ovary cells stably expressing hNav1.8. The holding voltage of the membrane was transferred to 0 mV from −120 mV for 50 ms and then restored to −50 mV for 8 s. After that, the membrane potential was renewed to −120 mV for 20 ms, which was followed by a depolarization to 0 mV for 50 ms. Finally, the potential was recovered to the holding voltage of −120 mV for 30 ms. This process was performed every 20 s. The compounds were administered when the voltage of hNav1.8 was stable. Every compound concentration was tested for 5 min, and all compounds were tested at several concentrations and with multiple cells.

[5] = target: T3, hNav1.5 (Homo sapiens, UniProt Q14524); assay: Assay for hNav1.5 inhibition (HEK293 cells stably expressing hNav1.5); format: cell-based; conditions: for inhibition at 10 µM: HEK293, read-out: Inhibitory Effect to Nav1.5; for Inhibitory activity against Nav1.5 (in words): similarly to ralfinamide, low selectivity over the cardiac sodium channel
T3 construct: expressed in transfected cells; host or cells: HEK293
Protocol: The inhibition of the compounds to hNav1.5 peak current was performed at room temperature using HEK293 cells that could express hNav1.5 stably. The holding voltage of the membrane was transferred to 0 mV from −120 mV for 50 ms and then restored to −50 mV for 8 s. After that, the membrane potential was renewed to −120 mV for 20 ms, followed by a depolarization to 0 mV for 50 ms. At last, the potential was recovered to the holding voltage −120 mV for 30 ms. This progress was performed every 20 s. The compounds were administrated when the voltage of hNav1.5 was stable. Every concentration was tested for 5 min and all compounds were tested at several concentrations and with multiple cells.

[6] = test system: ICR (CD−1) male mice; assay: Formalin test (mouse, phase II paw licking); format: in vivo; conditions: 20 mg/kg, dose-effect relationship assay
[7] = test system: mouse; assay: Mouse hotplate assay; format: in vivo; conditions: even at a high dose of 100 mg/kg; data not shown
[8] = test system: mouse; assay: Mouse tail flick assay; format: in vivo; conditions: even at a high dose of 100 mg/kg; data not shown
[9] = i.p., phase II (15–30 min), mean ± SD, n = 8
[10] = read-out: Inhibitory Effect against Nav1.7, Activated State (TP−1)
[11] = read-out: Inhibitory Effect against Nav1.7, Inactivated State (TP−2)

T1 sequence (Q15858 whole entry): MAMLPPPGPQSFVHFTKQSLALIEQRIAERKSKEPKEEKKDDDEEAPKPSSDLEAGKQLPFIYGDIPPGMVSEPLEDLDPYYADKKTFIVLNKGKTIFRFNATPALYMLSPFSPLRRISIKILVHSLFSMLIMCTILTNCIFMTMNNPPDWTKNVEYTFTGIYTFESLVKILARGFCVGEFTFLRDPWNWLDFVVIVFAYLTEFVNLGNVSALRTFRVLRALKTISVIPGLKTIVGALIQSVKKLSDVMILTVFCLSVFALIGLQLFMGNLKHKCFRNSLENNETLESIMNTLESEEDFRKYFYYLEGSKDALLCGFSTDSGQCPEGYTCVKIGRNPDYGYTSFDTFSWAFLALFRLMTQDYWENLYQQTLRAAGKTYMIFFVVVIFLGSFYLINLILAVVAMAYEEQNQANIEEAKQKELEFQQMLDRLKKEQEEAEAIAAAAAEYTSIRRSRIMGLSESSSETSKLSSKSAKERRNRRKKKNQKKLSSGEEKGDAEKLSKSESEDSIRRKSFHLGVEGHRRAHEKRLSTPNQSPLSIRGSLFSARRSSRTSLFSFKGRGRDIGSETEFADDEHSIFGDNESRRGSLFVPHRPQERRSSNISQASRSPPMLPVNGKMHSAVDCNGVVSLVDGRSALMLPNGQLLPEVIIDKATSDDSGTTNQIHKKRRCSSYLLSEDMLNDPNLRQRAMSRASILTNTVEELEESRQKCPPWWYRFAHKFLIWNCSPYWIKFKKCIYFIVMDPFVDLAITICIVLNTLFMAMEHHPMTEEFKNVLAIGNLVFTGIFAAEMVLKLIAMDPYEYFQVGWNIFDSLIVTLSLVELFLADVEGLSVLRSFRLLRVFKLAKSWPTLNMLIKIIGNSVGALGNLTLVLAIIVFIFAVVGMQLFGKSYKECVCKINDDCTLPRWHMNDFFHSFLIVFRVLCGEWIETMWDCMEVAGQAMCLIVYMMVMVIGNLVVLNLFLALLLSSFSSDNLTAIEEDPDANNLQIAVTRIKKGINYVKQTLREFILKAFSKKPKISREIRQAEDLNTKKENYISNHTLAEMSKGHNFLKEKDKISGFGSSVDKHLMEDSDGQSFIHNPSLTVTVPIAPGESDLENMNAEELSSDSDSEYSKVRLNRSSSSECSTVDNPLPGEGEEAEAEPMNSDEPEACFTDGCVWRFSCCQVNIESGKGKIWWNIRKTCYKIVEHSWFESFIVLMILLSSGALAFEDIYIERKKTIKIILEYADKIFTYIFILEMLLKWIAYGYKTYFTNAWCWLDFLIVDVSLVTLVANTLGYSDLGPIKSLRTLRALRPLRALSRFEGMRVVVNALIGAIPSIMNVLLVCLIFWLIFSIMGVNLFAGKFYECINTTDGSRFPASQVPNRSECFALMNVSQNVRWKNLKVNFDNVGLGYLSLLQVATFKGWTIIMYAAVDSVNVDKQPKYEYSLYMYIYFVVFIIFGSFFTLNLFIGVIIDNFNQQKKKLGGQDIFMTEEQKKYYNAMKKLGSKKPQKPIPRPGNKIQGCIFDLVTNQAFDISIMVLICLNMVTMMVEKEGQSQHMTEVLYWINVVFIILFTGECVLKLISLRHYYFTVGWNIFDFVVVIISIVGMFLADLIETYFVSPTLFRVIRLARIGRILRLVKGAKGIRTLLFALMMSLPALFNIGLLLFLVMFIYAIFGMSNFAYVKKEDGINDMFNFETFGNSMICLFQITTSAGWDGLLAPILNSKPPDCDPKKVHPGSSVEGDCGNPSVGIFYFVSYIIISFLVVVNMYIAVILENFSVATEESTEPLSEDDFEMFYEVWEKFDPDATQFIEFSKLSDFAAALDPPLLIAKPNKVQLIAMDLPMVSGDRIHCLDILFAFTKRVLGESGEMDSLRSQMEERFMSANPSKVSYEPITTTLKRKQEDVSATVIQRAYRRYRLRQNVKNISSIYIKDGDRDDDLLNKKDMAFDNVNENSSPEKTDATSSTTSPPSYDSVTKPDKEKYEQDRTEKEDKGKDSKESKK
T2 sequence (Q9Y5Y9 whole entry): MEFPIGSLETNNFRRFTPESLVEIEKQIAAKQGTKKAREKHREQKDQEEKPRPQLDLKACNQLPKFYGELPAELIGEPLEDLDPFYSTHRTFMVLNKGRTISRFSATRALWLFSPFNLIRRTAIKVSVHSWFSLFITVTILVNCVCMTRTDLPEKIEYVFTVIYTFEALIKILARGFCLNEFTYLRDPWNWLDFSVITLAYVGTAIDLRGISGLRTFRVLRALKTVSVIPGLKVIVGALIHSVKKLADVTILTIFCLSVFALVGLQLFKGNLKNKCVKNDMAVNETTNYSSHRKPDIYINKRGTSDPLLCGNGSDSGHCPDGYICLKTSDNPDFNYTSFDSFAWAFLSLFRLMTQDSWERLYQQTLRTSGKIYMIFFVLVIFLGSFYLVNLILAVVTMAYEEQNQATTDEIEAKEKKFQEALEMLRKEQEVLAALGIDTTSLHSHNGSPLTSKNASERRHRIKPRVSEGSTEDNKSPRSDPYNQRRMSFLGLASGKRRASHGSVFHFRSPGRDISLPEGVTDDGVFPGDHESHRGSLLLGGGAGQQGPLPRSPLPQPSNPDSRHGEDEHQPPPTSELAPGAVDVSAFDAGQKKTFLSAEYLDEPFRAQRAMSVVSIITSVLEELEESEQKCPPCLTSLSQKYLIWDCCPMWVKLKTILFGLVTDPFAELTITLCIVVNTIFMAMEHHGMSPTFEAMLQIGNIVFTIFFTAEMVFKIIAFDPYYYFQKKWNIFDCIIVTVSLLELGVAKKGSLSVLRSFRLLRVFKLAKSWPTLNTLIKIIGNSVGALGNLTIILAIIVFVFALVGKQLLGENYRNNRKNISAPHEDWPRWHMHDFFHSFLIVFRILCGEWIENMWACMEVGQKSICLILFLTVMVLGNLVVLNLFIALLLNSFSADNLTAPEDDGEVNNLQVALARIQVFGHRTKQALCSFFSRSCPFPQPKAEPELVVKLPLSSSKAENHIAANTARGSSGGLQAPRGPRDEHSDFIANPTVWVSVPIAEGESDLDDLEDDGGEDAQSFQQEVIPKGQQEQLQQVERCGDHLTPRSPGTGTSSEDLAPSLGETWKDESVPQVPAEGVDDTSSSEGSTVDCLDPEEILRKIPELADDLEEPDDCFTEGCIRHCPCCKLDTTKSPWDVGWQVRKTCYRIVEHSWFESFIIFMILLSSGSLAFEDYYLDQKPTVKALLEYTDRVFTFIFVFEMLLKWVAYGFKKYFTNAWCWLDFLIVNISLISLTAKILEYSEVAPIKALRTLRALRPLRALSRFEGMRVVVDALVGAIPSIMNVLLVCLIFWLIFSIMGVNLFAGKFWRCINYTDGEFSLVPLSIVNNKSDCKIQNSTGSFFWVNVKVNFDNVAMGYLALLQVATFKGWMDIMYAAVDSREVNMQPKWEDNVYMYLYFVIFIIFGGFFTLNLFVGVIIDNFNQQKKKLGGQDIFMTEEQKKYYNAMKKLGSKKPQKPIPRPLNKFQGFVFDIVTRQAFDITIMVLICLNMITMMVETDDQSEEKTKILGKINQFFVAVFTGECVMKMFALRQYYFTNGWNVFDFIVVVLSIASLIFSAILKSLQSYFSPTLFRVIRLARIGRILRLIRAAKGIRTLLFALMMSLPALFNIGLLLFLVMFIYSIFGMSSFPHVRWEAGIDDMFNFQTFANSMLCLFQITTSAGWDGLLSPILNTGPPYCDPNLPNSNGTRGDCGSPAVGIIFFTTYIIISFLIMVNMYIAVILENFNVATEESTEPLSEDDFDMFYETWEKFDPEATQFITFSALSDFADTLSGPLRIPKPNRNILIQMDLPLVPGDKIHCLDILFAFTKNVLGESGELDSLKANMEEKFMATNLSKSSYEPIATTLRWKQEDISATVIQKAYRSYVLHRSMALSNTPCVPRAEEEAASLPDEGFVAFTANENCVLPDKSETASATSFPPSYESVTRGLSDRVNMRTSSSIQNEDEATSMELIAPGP

| inhibition at 10 µM [2, 10] [%] | inhibition at 10 µM [2, 11] [%] | Compound | inhibition in vivo at 10 mg/kg [1, 9] [%] | % Analgesia (acetic acid-induced writhing test) [3] | also measured |
| --- | --- | --- | --- | --- | --- |
| 0.7 ± 0.8 | 1.5 ± 0.9 | C[C@H](NCc1ccc(COc2ccc3[nH]cnc3c2)cc1)C(N)=O [Compound 5d, (S)-2-((4-(((1H-Benzo[d]imidazol-5-yl)oxy)methyl)benzyl)amino)propanamide] | 60.8 ± 32.2 |  |  |
| 9.1 ± 4.3 | 38.6 ± 4.7 | C[C@H](NCc1ccc(COc2cccc3cccnc23)cc1)C(N)=O [Compound 7h, (S)-2-((4-((Quinolin-8-yloxy)methyl)benzyl)amino)propanamide] | 57.2 ± 30.1 |  |  |
| 8.6 ± 1.2 | 30 ± 2.9 | C[C@H](NCc1cccc(COc2ccc3ncccc3c2)c1)C(N)=O [Compound 7c, (S)-2-((3-((Quinolin-6-yloxy)methyl)benzyl)amino)propanamide] | 81.5 ± 14.8 |  |  |
| 14.7 ± 5.4 | 29.8 ± 0.6 | C[C@H](NCc1ccc(COc2cccc3ncccc23)cc1)C(N)=O [Compound 7b, (S)-2-((4-((Quinolin-5-yloxy)methyl)benzyl)amino)propanamide] | 37.2 ± 25.3 |  |  |
| 11.4 ± 1.6 | 58.5 ± 1.8 | C[C@H](NCc1cccc(COc2ccc3ccoc3c2)c1)C(N)=O [Compound 6e, (S)-2-((3-((Benzofuran-6-yloxy)methyl)benzyl)amino)propanamide] | 71.7 ± 22 | 45.7 ± 17.2 ^☆ % | Percentage of analgesia relative to ralfinamide (times higher) [1]: 1.5–2 times; IC50 [2]: 9.4 ± 2.7 µM; IC50 [4]: 10.1 ± 1.9 µM; inhibition at 10 µM [5]: 70.1 ± 2.2%; Inhibitory activity against Nav1.5 (in words) [5]: moderate inhibitory activity; Analgesic effect in mouse hotplate assay (in words) [7]: no analgesic effect; Analgesic effect in tail flick assay (in words) [8]: no analgesic effect |
| 14.7 ± 0.2 | 46 ± 0.1 | C[C@H](NCc1cccc(COc2cccc3cccnc23)c1)C(N)=O [Compound 7g, (S)-2-((3-((Quinolin-8-yloxy)methyl)benzyl)amino)propanamide] | 35.6 ± 26.1 |  |  |
| 1.7 ± 0.3 | 2.6 ± 0.8 | C[C@H](NCc1cccc(COc2ccc3[nH]cnc3c2)c1)C(N)=O [Compound 5c, (S)-2-((3-(((1H-Benzo[d]imidazol-5-yl)oxy)methyl)benzyl)amino)propanamide] | 48.8 ± 15.5 |  |  |
| 10.9 ± 1.1 | 31.8 ± 0.3 | C[C@H](NCc1ccc(COc2ccc3occc3c2)cc1)C(N)=O [Compound 6d, (S)-2-((4-((Benzofuran-5-yloxy)methyl)benzyl)amino)propanamide] | 42.2 ± 16.3 | 28.9 ± 8.5 % |  |
| 3.7 ± 0.5 | 13.5 ± 0.4 | C[C@H](NCc1ccc(COc2ccc3ncccc3c2)cc1)C(N)=O [Compound 7d, (S)-2-((4-((Quinolin-6-yloxy)methyl)benzyl)amino)propanamide] | 20.9 ± 18.7 |  |  |
| 12.4 ± 2.9 | 50.4 ± 3.6 | C[C@H](NCc1ccc(COc2ccc3ccoc3c2)cc1)C(N)=O [Compound 6f, (S)-2-((4-((Benzofuran-6-yloxy)methyl)benzyl)amino)propanamide] | 67.8 ± 22.7 | 63.2 ± 13.3 ^☆ @ % | Percentage of analgesia relative to ralfinamide (times higher) [1]: 1.5–2 times; IC50 [2]: 8.1 ± 1.1 µM; IC50 [4]: 4.8 ± 0.7 µM; inhibition at 10 µM [5]: 48 ± 0.1%; Inhibitory activity against Nav1.5 (in words) [5]: moderate inhibitory activity; Analgesic effect in mouse hotplate assay (in words) [7]: no analgesic effect; Analgesic effect in tail flick assay (in words) [8]: no analgesic effect |
| -1.8 ± 3.2 | 31.6 ± 3.4 | C[C@H](NCc1ccc(COc2ccc3cccnc3c2)cc1)C(N)=O [Compound 7f, (S)-2-((4-((Quinolin-7-yloxy)methyl)benzyl)amino)propanamide] | 15.9 ± 17.6 |  |  |
| 3.6 ± 3.3 | 47.7 ± 2.7 | C[C@H](NCc1cccc(COc2ccc3cccnc3c2)c1)C(N)=O [Compound 7e, (S)-2-((3-((Quinolin-7-yloxy)methyl)benzyl)amino)propanamide] | 30.6 ± 14.7 |  |  |
| 12.2 ± 0.7 | 48.1 ± 4.2 | C[C@H](NCc1cccc(COc2ccc3occc3c2)c1)C(N)=O [Compound 6c, (S)-2-((3-((Benzofuran-5-yloxy)methyl)benzyl)amino)propanamide] | 30.2 ± 19.8 | 11.2 ± 7.6% |  |
| 5.1 ± 1.2 | 10.7 ± 0.4 | C[C@H](NCc1cccc(COc2cccc3[nH]cnc23)c1)C(N)=O [Compound 5a, (S)-2-((3-(((1H-Benzo[d]imidazol-4-yl)oxy)methyl)benzyl)amino)propanamide] | 51 ± 21.6 |  |  |
| 6.4 ± 4.9 | 23.8 ± 3.6 | C[C@H](NCc1cccc(COc2cccc3ncccc23)c1)C(N)=O [Compound 7a, (S)-2-((3-((Quinolin-5-yloxy)methyl)benzyl)amino)propanamide] | 48 ± 27.8 |  |  |
| 3.7 ± 2 | 1.4 ± 0.6 | C[C@H](NCc1ccc(COc2cccc3[nH]cnc23)cc1)C(N)=O [Compound 5b, (S)-2-((4-(((1H-Benzo[d]imidazol-4-yl)oxy)methyl)benzyl)amino)propanamide] | 27.4 ± 19.2 |  |  |
| 11.8 ± 0.3 | 55.5 ± 2.5 | C[C@H](NCc1ccc(COc2cccc3occc23)cc1)C(N)=O [Compound 6b, (S)-2-((4-((Benzofuran-4-yloxy)methyl)benzyl)amino)propanamide] | 48.4 ± 26.4 | 48.0 ± 5.8 ^☆ % |  |

| Compound | inhibition at 10 µM [2, 10] [%] | inhibition at 10 µM [2, 11] [%] | inhibition in vivo at 10 mg/kg [1, 9] [%] | % Analgesia (acetic acid-induced writhing test) [3] | also measured |
| --- | --- | --- | --- | --- | --- |
| C[C@H](NCc1ccc(OCc2ccccc2F)cc1)C(N)=O [Ralfinamide, reference compound] | 8.1 ± 3.8 | 57.7 ± 3.4 | 42.4 | 44.4 ± 15.5 ^☆ % | % Analgesia (formalin test) [1, 9]: 42.4 ± 23.3 %; IC50 [2]: 6.6 ± 1.6 µM; IC50 [4]: 36.3 ± 8.9 µM; inhibition at 10 µM [5]: 64.6 ± 3.2%; Analgesic response (formalin test) [6]: 59.7% |
